Measurements as given in patent US11434205B2, “Substituted imidazole carboxylate derivatives and the use thereof” (priority 2018, dated 2022).
Like-named read-outs stand apart in the source and are kept apart here.

Key:
rats [1] = assay: Loss of righting reflexes (LORR) assay in rats, ED50 by up and down method; type: in vivo, rat; details: tail vein, class symbols; for ED50: Rattus norvegicus
Experimental: The Anesthetic Activity of the Compounds was Assessed in Rats Using a Loss of Righting Reflexes (LORR) Assay
(§1) Adult male Sprague-Dawley rats (250-300 g) were selected for the experiment. […] The anesthesia effects of the compounds were assessed in rats using a LORR assay and a period >30 s was considered as an indicator of general anesthesia. Then the up and down method was used to determine 50% effective dose (ED50). The drugs were administered through the tail vein of rats in a volume of 0.6 mL and at a rate of 0.1 mL/s.

rats [2] = test system: rats
Experimental: as §1

rats [3] = assay: Pharmacological characteristics at equivalent doses (2×ED50) in rats; details: 2×ED50, tail vein; for Adverse reactions: Red urine (incidence): DMSO solution (DMSO alone 10/10); for Onset time: time of LORR
Experimental: Comparison of Pharmacological Characteristics of the Compounds at Equivalent Doses (2×ED50) in Rats
Adult male Sprague-Dawley rats (250-300 g) were selected for the experiment (n=8). […] The drugs were administered at a dose twice their ED50 through the tail vein of rats in a volume of 0.6 mL and at a rate of 0.1 mL/s. In addition, the time of LORR was recorded as the onset time of anesthesia. […] Furthermore, the duration of the pharmacological effects is sufficient to meet the time requirements for rapid induction of general anesthesia and for diagnostic examinations, some short invasive clinical examinations, or operations.

rats [4] = type: in vivo, rat; details: rats of the MAP/HR figures, 2×ED50, tail vein; same value in min
Experimental: The Effects of the Compounds on the Circulatory Function were Measured in Rats Using a Small Animal Implanted Physiological Signal Telemetry System
The anesthetic activity of the compounds was assessed in rats using a LORR assay and the up and down method was used to determine ED50. […] A small animal implantable physiological signal telemetry system from DSI (Data Science International, Inc.) was used to measure the changes in heart rate (HR) and blood pressure in rats during 30 min after administration. Then mean arterial pressure (MAP) and HR were used as representative indicators to determine hemodynamic stability of the compounds of the present invention in rats.
A small animal implantable physiological signal telemetry system from DSI (Data Science International, Inc.) including implants (RATHD-521, DSI, United States), receiver boards (RPC-1, DSI, United States), signal conversion devices (DEM, DSI, USA), perfusion glue (DSI, USA), fibrin membrane (DSI, USA), etc.
First, animal models were established. A left ventricular catheter, an abdominal aortic catheter and ECG wires were placed into rats. At least one week after surgery, data were recorded.
Administration procedure: rats were put into a restraint device with a 20 G indwelling catheter placed into a lateral tail vein. After administration of 0.2 mL heparin, a pre-filled extension tube was attached and taped to the tail vein to secure the extension tube. Then the rats were removed from the restraint device to a cage before placing them together on the signal receiver. […] Finally, the pharmacological effects, adverse reactions, and behavioural manifestations of the rats were observed and recorded
Data collection: After setting the data collection parameters on the software, the power of the implant was turned on to start data collection. In this experiment, data recording frequency was set to 15 s. Data collection was continuously recorded for 30 min before and after administration of the drugs in rats. After data acquisition, the test was stopped.

rats [5] = type: in vivo, rat; details: rats of the MAP/HR figures, 2×ED50, tail vein
[6] = test system: secretion of corticosterone, H295R cell line; assay: cells; type: cell-based; details: for EC50: Homo sapiens, NCI-H295R, read-out: EC50 (Corticosterone)
Experimental: (§2) The Effects of the Compounds on Adrenocortical Function In Vitro Test
(§3) Then secretion of the cortisol and corticosterone in the supernatant, was measured using HPLC-MS/MS method to determine whether the compounds of the present invention had adrenotoxic potential.

[7] = test system: secretion of cortisol, H295R cell line; assay: cells; type: cell-based; details: for EC50: Homo sapiens, NCI-H295R, read-out: EC50 (Cortisol)
Experimental: as §2, §3

rats [8] = details: continuous tail vein infusion at 2×MIR, LORR maintained 1 hour, Table D4
Experimental: Pharmacological Effects of the Compounds on Continuous Infusion in Rats
Adult male Sprague-Dawley rats with body weight ranging from 250 to 300 gm were selected for continuous infusion test. […] Time to recovery of righting reflex from stopping infusion, and time to fully awake from stopping infusion were recorded.

[9] = H295R cell line, 0.1-10000 nM, HPLC-MS/MS, Table D3

Structure (SMILES) | ED50 (rats [1]) | Approximate therapeutic index (rats [2]) | Minimal lethal dose (rats [2]) | Righting reflex duration (rats [3]) | Adverse reactions: Red urine (incidence) (rats [3]) | Onset time (rats [3]) | recovery time of the test animals' righting reflex (rats [4]) | recovery time of the test animals' righting reflex (rats [5]) | ED50 (mg/kg) (rats [1]) | Sedation duration (mg/kg) (rats [3]) | Corticosterone as an indicator to determine the presence of inhibition [6, 9] | EC50 [6] | Cortisol as an indicator to determine the presence of inhibition [7, 9] | EC50 [7] | Onset time (rats [8]) | Recovery time after stopping infusion (rats [8]) | Types and incidence of adverse reactions (rats [8]) | Corticosterone as an indicator to determine the presence of inhibition ([6]; H295R, Table A3) | Cortisol as an indicator to determine the presence of inhibition ([7]; H295R, Table A3)
CCC(C)(C)OC(=O)c1c(F)ncn1[C@H](C)c1ccccc1 [Compound E28] | 0.1 to 0.5 mg/kg | >16 | >6 mg/kg | 2.69 ± 1.07 min | (8/8) | 0.43 ± 0.19 min | 2.5 min | 150 s | – | – | – | – | – | – | – | – | – | – | –
C[C@H](c1ccccc1)n1cnc(F)c1C(=O)OC1CCC1 [Compound E9] | – | >48 | >6 mg/kg | 1.24 ± 0.79 min | (8/8) | 0.42 ± 0.20 min | 1.28 min | 77 s | B (B means that the measured ED50 is in the range of 0.10-0.50 mg/kg (excluding 0.10 mg/kg, including 0.50 mg/kg).) | 9.29 ± 2.07 | – | – | – | – | – | – | – | – | –
C[C@H](c1ccccc1)n1cnc(F)c1C(=O)OCC(C)(C)C [Compound E26] | – | >50 | >4 mg/kg | 1.45 ± 0.41 min | (8/8) | 0.48 ± 0.09 min | 1.57 min | 94 s | A (A indicates that the measured ED50 is in the range of 0.01-0.10 mg/kg (including 0.01 and 0.10 mg/kg).) | 6.37 ± 1.31 | – | – | – | – | – | – | – | – | –
C=C=CC1(OC(=O)c2cncn2[C@H](C)c2ccccc2)CSC1 [Compound D28] | 0.01 to 0.1 mg/kg | >16 | >10 mg/kg | 5.09 ± 1.89 min | Red urine (8/8) | 0.25 ± 0.06 min | – | – | – | – | 0 | > 10 µM | 0 | > 10 µM | 3 to 4 min | 13 to 16 min | Tremor (2/6) | – | –
C[C@H](c1ccccc1)n1cncc1C(=O)OC1(C2CO2)CCC1 (stereo partly shown) [Compound A20] | 0.01 to 0.1 mg/kg | >22 | >3 mg/kg | 1.90 ± 0.74 min | Red urine (8/8) | 0.11 ± 0.03 min | – | – | – | – | – | > 10 µM | – | > 10 µM | – | – | – | 0 | 0
